Read-outs that look alike come from different tables or passages of the source.
Columns and labels:
SF-268 = assay: NCI five-dose assay; type: cell-based, human; conditions: for CC50 / GI50: Homo sapiens; for CC50: read-out: LC50 (the source's name); for GI50: read-out: GI50 Conc. per Cell Lines
MDA-MB 231 cell = assay: Apoptosis induction assay (Annexin V/PI); type: cell-based; conditions: MDA-MB 231, 24 h
Method: The MDA-MB 231 cell was labeled with Annexin V/PI, cultured for 24 h, and examined to assess the capacity of 7i to induce apoptosis.
(§1) The MDA-MB231 breast cancer cell line was used for cell cycle study and apoptosis detection. The assay was performed as previously documented (Appendix A).

Breast cancer subpanel = assay: NCI five-dose assay, subpanel mean; type: cell-based, human; conditions: for GI50 Selectivity Ratio (MID a/MID b): Breast cancer subpanel; for GI50: Homo sapiens, read-out: GI50 Subpanel MID b
MOLT-4 = assay: NCI five-dose assay; type: cell-based, human; conditions: for CC50 / GI50: Homo sapiens; for CC50: read-out: LC50 (the source's name); for GI50: read-out: GI50 Conc. per Cell Lines
[1] = system: MDA-MB 231 breast cancer cells; assay: Cell cycle analysis; type: cell-based; conditions: MDA-MB 231, 24 h, IC50 concentration of 7i
Method: The impact of compound 7i on cell cycle progression was investigated in MDA-MB 231 breast cancer cells. […] The cell line was handled with PI/Annexin V, and flow cytometry was utilizing a BD FACS Caliber. […] This indicates a cell cycle arrest at the G1 phase transition.
as §1

ACHN = assay: NCI five-dose assay; type: cell-based, human; conditions: for LC50 / GI50: Homo sapiens; for GI50: read-out: GI50 Conc. per Cell Lines
HS 578T = assay: NCI five-dose assay; type: cell-based, human; conditions: for LC50 / GI50: Homo sapiens; for GI50: read-out: GI50 Conc. per Cell Lines
Leukemia subpanel = assay: NCI five-dose assay, subpanel mean; type: cell-based, human; conditions: for GI50: Homo sapiens, read-out: GI50 Subpanel MID b; for GI50 Selectivity Ratio (MID a/MID b): Leukemia subpanel
Prostate cancer subpanel = assay: NCI five-dose assay, subpanel mean; type: cell-based, human; conditions: for GI50: Homo sapiens, read-out: GI50 Subpanel MID b; for GI50 Selectivity Ratio (MID a/MID b): Prostate cancer subpanel
EKVX = assay: NCI five-dose assay; type: cell-based, human; conditions: for CC50 / GI50: Homo sapiens; for CC50: read-out: LC50 (the source's name); for GI50: read-out: GI50 Conc. per Cell Lines
RPMI-8226 = assay: NCI five-dose assay; type: cell-based, human; conditions: for CC50 / GI50: Homo sapiens; for CC50: read-out: LC50 (the source's name); for GI50: read-out: GI50 Conc. per Cell Lines
CCRF-CEM = assay: NCI five-dose assay; type: cell-based, human; conditions: Homo sapiens; for CC50: read-out: LC50 (the source's name); for GI50: read-out: GI50 Conc. per Cell Lines
U251 = assay: NCI five-dose assay; type: cell-based, human; conditions: for CC50 / GI50: Homo sapiens, U-251; for CC50: read-out: LC50 (the source's name); for GI50: read-out: GI50 Conc. per Cell Lines
HOP-92 = assay: NCI five-dose assay; type: cell-based, human; conditions: for CC50 / GI50: Homo sapiens; for CC50: read-out: LC50 (the source's name); for GI50: read-out: GI50 Conc. per Cell Lines
RXF393 = assay: NCI five-dose assay; type: cell-based, human; conditions: for LC50 (concentration killing 50% of cells) / GI50: Homo sapiens, RXF 393; for GI50: read-out: GI50 Conc. per Cell Lines
[2] = HOP-92, Non-small cell lung cancer

O/N=C(\CSc1nnc(-c2c[nH]c3ccccc23)n1-c1ccccc1)c1ccc(Br)cc1 [Compound 7i, (Z)-2-((5-(1H-Indol-3-yl)-4-phenyl-4H-1,2,4-triazol-3-yl)thio)-1-(4-bromophenyl) Ethanone Oxime]
CC50 (SF-268; SF-268, CNS cancer, 48 h): > 100 µM
GI50 (SF-268; SF-268, CNS cancer): 2.37 µM
necrosis percentage (PI/Annexin upper left quadrant) (MDA-MB 231 cell): 3.88%
GI50 Selectivity Ratio (MID a/MID b) (Breast cancer subpanel): 1.02
GI50 (Breast cancer subpanel; average sensitivity of all cell lines of the Breast cancer subpanel): 2.73 µM
CC50 (MOLT-4; MOLT-4, Leukemia, 48 h): > 100 µM
GI50 (MOLT-4; MOLT-4, Leukemia): 2.09 µM
TGI Conc. per Cell Lines (MOLT-4; MOLT-4, Leukemia): 4.80 µM
cells in G0/G1 phase (%DIP G1) [1]: 83%
LC50 (ACHN; Renal cancer, 48 h): 24.9 µM
GI50 (ACHN; Renal cancer): 2.53 µM
TGI Conc. per Cell Lines (ACHN; Renal cancer): 7.05 µM
TGI Conc. per Cell Lines (HS 578T; Breast cancer): 11.90 µM
LC50 (HS 578T; Breast cancer, 48 h): > 100 µM
GI50 (HS 578T; Breast cancer): 2.84 µM
GI50 (Leukemia subpanel; average sensitivity of all cell lines of the Leukemia subpanel): 2.29 µM
GI50 Selectivity Ratio (MID a/MID b) (Leukemia subpanel): 1.22
GI50 (Prostate cancer subpanel; average sensitivity of all cell lines of the Prostate cancer subpanel): 2.1 µM
GI50 Selectivity Ratio (MID a/MID b) (Prostate cancer subpanel): 1.33
CC50 (EKVX; Non-small cell lung cancer, 48 h): 34.2 µM
GI50 (EKVX; Non-small cell lung cancer): 2.6 µM
TGI Conc. per Cell Lines (EKVX; Non-small cell lung cancer): 9.09 µM
CC50 (RPMI-8226; RPMI-8226, Leukemia, 48 h): > 100 µM
GI50 (RPMI-8226; RPMI-8226, Leukemia): 2.45 µM
CC50 (CCRF-CEM; Leukemia, 48 h): > 100 µM
GI50 (CCRF-CEM; Leukemia): 2.78 µM
CC50 (U251; U251, CNS cancer, 48 h): 51.2 µM
GI50 (U251; U251, CNS cancer): 4.38 µM
TGI Conc. per Cell Lines (HOP-92; [2]): 24.10 µM
CC50 (HOP-92; HOP-92, Non-small cell lung cancer, 48 h): > 100 µM
GI50 (HOP-92; [2]): 3.66 µM
LC50 (concentration killing 50% of cells) (RXF393; RXF393, Renal cancer, 48 h): 7.65 µM
GI50 (RXF393; RXF393, Renal cancer): 1.75 µM
TGI Conc. per Cell Lines (RXF393; RXF393, Renal cancer): 3.65 µM

O/N=C(\CSc1nnc(-c2c[nH]c3ccccc23)n1-c1ccccc1)c1ccc(Cl)cc1 [Compound 7j, (Z)-2-((5-(1H-Indol-3-yl)-4-phenyl-4H-1,2,4-triazol-3-yl)thio)-1-(4-chlorophenyl) Ethanone Oxime]
GI50 (SF-268; SF-268, five dose levels): 2.11 µM
CC50 (SF-268; SF-268, five dose levels): > 100 µM
TGI Conc. per Cell Lines (SF-268; SF-268, five dose levels): 5.08 µM
GI50 Selectivity Ratio (MID a/MID b) (Breast cancer subpanel): 1.24
GI50 (Breast cancer subpanel; Breast cancer, average sensitivity of all cell lines of the subpanel): 2.93 µM
GI50 (MOLT-4; MOLT-4, five dose levels): 2.16 µM
CC50 (MOLT-4; MOLT-4, five dose levels): > 100 µM
TGI Conc. per Cell Lines (MOLT-4; MOLT-4, five dose levels): 5.69 µM
LC50 (ACHN; five dose levels): > 100 µM
GI50 (ACHN; five dose levels): 3.69 µM
TGI Conc. per Cell Lines (ACHN; five dose levels): 14.5 µM
LC50 (HS 578T; five dose levels): > 100 µM
GI50 (HS 578T; five dose levels): 3.09 µM
TGI Conc. per Cell Lines (HS 578T; five dose levels): 16.6 µM
GI50 (Leukemia subpanel; Leukemia, average sensitivity of all cell lines of the subpanel): 2.8 µM
GI50 Selectivity Ratio (MID a/MID b) (Leukemia subpanel): 1.30
GI50 (Prostate cancer subpanel; Prostate cancer, average sensitivity of all cell lines of the subpanel): 2.45 µM
GI50 Selectivity Ratio (MID a/MID b) (Prostate cancer subpanel): 1.48
GI50 (EKVX; five dose levels): 3.21 µM
CC50 (EKVX; five dose levels): > 100 µM
TGI Conc. per Cell Lines (EKVX; five dose levels): 19.2 µM
GI50 (RPMI-8226; RPMI-8226, five dose levels): 2.38 µM
CC50 (RPMI-8226; RPMI-8226, five dose levels): > 100 µM
TGI Conc. per Cell Lines (RPMI-8226; RPMI-8226, five dose levels): 7.29 µM
GI50 (CCRF-CEM; five dose levels): 2.85 µM
CC50 (CCRF-CEM; five dose levels): > 100 µM
GI50 (U251; U251, five dose levels): 4.73 µM
CC50 (U251; U251, five dose levels): 46.9 µM
TGI Conc. per Cell Lines (U251; U251, five dose levels): 81.2 µM
TGI Conc. per Cell Lines (HOP-92; HOP-92, five dose levels): 37.6 µM
GI50 (HOP-92; HOP-92, five dose levels): 3.84 µM
CC50 (HOP-92; HOP-92, five dose levels): > 100 µM
LC50 (concentration killing 50% of cells) (RXF393; RXF393, five dose levels): 46.3 µM
GI50 (RXF393; RXF393, five dose levels): 2.22 µM
TGI Conc. per Cell Lines (RXF393; RXF393, five dose levels): 6.29 µM

Reference: paper PMC11859928, “Design, Synthesis, and Antiproliferative Activity of Novel Indole/1,2,4-Triazole Hybrids as Tubulin Polymerization Inhibitors” (Pharmaceuticals, 2025)
